Consider 59 compounds from ChEMBL document CHEMBL4339201, “A survey of core replacements in indole-based HIV-1 attachment inhibitors” (Bioorg Med Chem Lett, 2019).

A value given as a limit tells only on which side of the number the result lay.

The nature of data set [1]: Cytotoxicity against human MT2 cells assessed as decrease in cell viability. Format: cell-based.
The subject of data set [2] is Human immunodeficiency virus 1. In words: Antiviral activity against ENV pseudotyped HIV1 […] infected in human HeLa67 cells expressing CD4/CCR5[…] after 72 hrs by luciferase reporter gene assay. Format: functional, organism-based. Particulars: Human immunodeficiency virus 1, HeLa67, 72 h.

Consider `O=C(C(=O)N1CCN(C(=O)c2ccccc2)CC1)c1c[nH]c2ccccc12`, for which the CC50 in data set [1] came to 339 µM.
As to `COc1ccc2[nH]c(C(=O)C(=O)N3CCN(C(=O)c4ccccc4)CC3C)cc2c1` (stereo not given), the CC50 in data set [1] was 33 µM. Besides, in data set [2], the EC50 is greater than 5000 nM.
As to `O=C(C(=O)N1CCN(C(=O)c2ccccc2)CC1)c1ccc2nccnc2c1`, the CC50 in data set [1] is greater than 300 µM. This compound showed an EC50 in data set [2] of 3610 nM.
As for `O=C(C(=O)N1CCN(C(=O)c2ccccc2)CC1)c1csc2ccccc12`, the CC50 in data set [1] stood at 141 µM. The compound also gave an EC50 in data set [2] of 764 nM.
In the case of `C[C@@H]1CN(C(=O)c2ccccc2)CCN1C(=O)C(=O)c1nc2ccccc2n1C`, the CC50 in data set [1] was greater than 300 µM. In addition, the EC50 in data set [2] is 12 nM.
For the compound `C[C@@H]1CN(C(=O)c2ccccc2)CCN1C(=O)C(=O)c1ccc2ccccc2n1`, the CC50 in data set [1] came to 198 µM. This compound came in with an EC50 in data set [2] of 0.7 nM.
For `O=C(C(=O)N1CCN(C(=O)c2ccccc2)CC1)c1cnc2ccccc2n1`, in data set [1], the CC50 is greater than 300 µM. The compound further showed an EC50 in data set [2] of 108 nM.
Regarding `C[C@@H]1CN(C(=O)c2ccccc2)CCN1C(=O)C(=O)c1cc2sccc2[nH]1`, in data set [1], the CC50 was 106 µM. In data set [2], the EC50 was 2320 nM.
Regarding `C[C@@H]1CN(C(=O)c2ccccc2)CCN1C(=O)C(=O)c1cc2sccc2s1`, the cytotoxic concentration (CC50) in data set [1] was greater than 300 µM. In data set [2], this compound registered an EC50 of 358 nM.
For the compound `O=C(C(=O)N1CCN(C(=O)c2ccccc2)CC1)c1cc2ccccc2[nH]1`, the CC50 in data set [1] was greater than 300 µM. In data set [2], this compound showed an EC50 of 561 nM.
For `O=C(C(=O)N1CCN(C(=O)c2ccccc2)CC1)c1cn2c(n1)sc1ccccc12` the same measures were greater than 300 µM and 52 nM.
With `CC1CN(C(=O)c2ccccc2)CCN1C(=O)C(=O)c1ccc2c(O)cccc2n1` (stereo not given), in data set [1], the CC50 was determined as 195 µM. A half-maximal response in data set [2] (EC50) required 0.4 nM.
For the compound `C[C@@H]1CN(C(=O)c2ccccc2)CCN1C(=O)C(=O)c1ccc2scnc2c1`, the CC50 in data set [1] was greater than 300 µM. The compound further displayed an EC50 in data set [2] of 86 nM.
Consider `O=C(C(=O)N1CCN(C(=O)c2ccccc2)CC1)c1nc2ccccc2o1`, for which, in data set [1], the CC50 is greater than 300 µM. This compound had an EC50 in data set [2] greater than 5000 nM.
Turning to `O=C(C(=O)N1CCN(C(=O)c2ccccc2)CC1)c1cnn2ccccc12`, the CC50 in data set [1] is greater than 300 µM. For the same compound, the EC50 in data set [2] is greater than 5000 nM.
For the compound `C[C@H]1CN(C(=O)c2ccccc2)CCN1C(=O)C(=O)c1cnc2ccccc2n1`, the CC50 in data set [1] worked out at 114 µM. The compound also displayed an EC50 in data set [2] of 26 nM.
Consider `COc1ccc2cc(C(=O)C(=O)N3CCN(C(=O)c4ccccc4)C[C@H]3C)ccc2c1`, for which the CC50 in data set [1] was found to be 41 µM. Moreover, the EC50 in data set [2] is 0.1 nM.
For `O=C(C(=O)N1CCN(C(=O)c2ccccc2)CC1)c1cc2ccccc2cn1` the same measures were greater than 300 µM and 182 nM.
Take `C[C@@H]1CN(C(=O)c2ccccc2)CCN1C(=O)C(=O)c1c[nH]c2c1ccc1cccnc12`: the CC50 in data set [1] was determined as 45 µM. In data set [2], this compound yielded an EC50 of 17 nM.
For `C[C@@H]1CN(C(=O)c2ccccc2)CCN1C(=O)C(=O)c1ccc2cc(C(N)=O)ccc2c1` the same measures were 189 µM and 11.9 nM.
Consider `C[C@@H]1CN(C(=O)c2ccccc2)CCN1C(=O)C(=O)c1ccc2cc(-c3nccs3)ccc2c1`, for which the EC50 in data set [2] came to 0.03 nM.
Consider `O=C(C(=O)N1CCN(C(=O)c2ccccc2)CC1)c1nc2ccccc2[nH]1`, for which the CC50 in data set [1] was greater than 300 µM. For the same compound, in data set [2], the EC50 was found to be 2460 nM.
As to `CC1CN(C(=O)c2ccccc2)CCN1C(=O)C(=O)c1nsc2ccccc12` (stereo not given), in data set [1], the CC50 was determined as 75 µM. This compound displayed an EC50 in data set [2] of 734 nM.
For the compound `C[C@H]1CN(C(=O)c2ccccc2)CCN1C(=O)C(=O)c1ccc2ccccc2n1`, in data set [1], the CC50 was found to be 166 µM. Further, a half-maximal effect in data set [2] (EC50) was put at 4.4 nM.
As to `C[C@@H]1CN(C(=O)c2ccccc2)CCN1C(=O)C(=O)c1ccc2cc(C(=N)NO)ccc2c1`, the CC50 in data set [1] turned out to be 234 µM. This compound also registered an EC50 in data set [2] of 0.16 nM.
`O=C(C(=O)N1CCN(C(=O)c2ccccc2)CC1)c1cc2ccccc2s1`: the half-maximal cytotoxic concentration (CC50) in data set [1] worked out at 9 µM. The compound also had an EC50 in data set [2] of 2840 nM.
Consider `O=C(C(=O)N1CCN(C(=O)c2ccccc2)CC1)c1ccc2cnccc2n1`, for which, in data set [1], the CC50 is greater than 300 µM. In addition, the response in data set [2] was half-maximal at 137 nM (EC50).
In the case of `C[C@@H]1CN(C(=O)c2ccccc2)CCN1C(=O)C(=O)c1ccc2cc(C#N)ccc2c1`, the CC50 in data set [1] amounted to 102 µM. Moreover, the midpoint of the response in data set [2], the EC50, lay at 30 nM.
For `O=C(C(=O)N1CCN(C(=O)c2ccccc2)CC1)c1ccc2ccccc2n1`, in that order: greater than 300 µM and 13 nM.
In the case of `C[C@@H]1CN(C(=O)c2ccccc2)CCN1C(=O)C(=O)c1cc2cccn2cn1`, the CC50 in data set [1] is greater than 300 µM. For the same compound, it took 407 nM to reach a half-maximal effect in data set [2] (EC50).
In the case of `C[C@@H]1CN(C(=O)c2ccccc2)CCN1C(=O)C(=O)c1ccc2cc(Br)ccc2c1`, in data set [1], the 50% cytotoxic concentration (CC50) came out at 301 µM. The same compound yielded an EC50 in data set [2] of 1.3 nM.
Regarding `COc1ccc2nc(C(=O)C(=O)N3CCN(C(=O)c4ccccc4)C[C@H]3C)sc2c1`, the CC50 in data set [1] amounted to 151 µM. A half-maximal effect in data set [2] (EC50) was put at 2.6 nM.
For `COc1cccc2nc(C(=O)C(=O)N3CCN(C(=O)c4ccccc4)CC3C)ccc12` (stereo not given), in that order: 200 µM and 2.9 nM.
`C[C@@H]1CN(C(=O)c2ccccc2)CCN1C(=O)C(=O)c1cn2c(n1)sc1ccccc12`: the CC50 in data set [1] was greater than 300 µM. For the same compound, a half-maximal effect in data set [2] (EC50) was put at 11 nM.
For `O=C(C(=O)N1CCN(C(=O)c2ccccc2)CC1)c1ccc2[nH]ccc2c1` the same measures were greater than 250 µM and 255 nM.
Turning to `O=C(C(=O)N1CCN(C(=O)c2ccccc2)CC1)c1ccc2ccccc2c1`, the CC50 in data set [1] was 94 µM. The compound also gave an EC50 in data set [2] of 135 nM.
For `C[C@@H]1CN(C(=O)c2ccccc2)CCN1C(=O)C(=O)c1ccc2cc(C(=O)O)ccc2c1`, in data set [1], the CC50 is greater than 300 µM. In data set [2], this compound yielded an EC50 of 27 nM.
For the compound `O=C(C(=O)N1CCN(C(=O)c2ccccc2)CC1)c1ccc2cccnc2n1`, the CC50 in data set [1] is greater than 300 µM. In data set [2], the EC50 is greater than 5000 nM.
Regarding `C[C@@H]1CN(C(=O)c2ccccc2)CCN1C(=O)C(=O)c1nc2ccccc2[nH]1`, the CC50 in data set [1] is greater than 300 µM. The compound also yielded an EC50 in data set [2] of 798 nM.
Consider `CC1CN(C(=O)c2ccccc2)CCN1C(=O)C(=O)c1ccc2ccccc2n1` (stereo not given), for which the CC50 in data set [1] turned out to be 266 µM. In addition, a half-maximal response in data set [2] (EC50) required 1.2 nM.
Consider `CC1CN(C(=O)c2ccccc2)CCN1C(=O)C(=O)c1ccc2cc(Br)ccc2n1` (stereo not given), for which the CC50 in data set [1] stood at 134 µM. In data set [2], this compound returned an EC50 of 1.7 nM.
Take `CC1CN(C(=O)c2ccccc2)CCN1C(=O)C(=O)c1ccc2cc(O)ccc2n1` (stereo not given): in data set [1], the CC50 amounted to 210 µM. The same compound displayed an EC50 in data set [2] of 0.2 nM.
For `CC1CN(C(=O)c2ccccc2)CCN1C(=O)C(=O)c1cnc2ccccn12` (stereo not given), in that order: greater than 300 µM and greater than 5000 nM.
For `O=C(C(=O)N1CCN(C(=O)c2ccccc2)CC1)c1cccc2ccccc12` the same measures were greater than 300 µM and 355 nM.
With `C[C@@H]1CN(C(=O)c2ccccc2)CCN1C(=O)C(=O)c1ccc2ccccc2c1`, the CC50 in data set [1] is 171 µM. The same compound gave an EC50 in data set [2] of 2.4 nM.
`C[C@@H]1CN(C(=O)c2ccccc2)CCN1C(=O)C(=O)c1ccc2[nH]nnc2c1`: the CC50 in data set [1] was greater than 300 µM. In data set [2], this compound registered an EC50 of 3060 nM.
As for `CC1CN(C(=O)c2ccccc2)CCN1C(=O)C(=O)c1cnc2ncccn12` (stereo not given), the CC50 in data set [1] is greater than 300 µM. Also, the EC50 in data set [2] is greater than 5000 nM.
Regarding `COc1cc(OC)c2cc(C(=O)C(=O)N3CCN(C(=O)c4ccccc4)CC3C)[nH]c2c1` (stereo not given), the CC50 in data set [1] is 68 µM. The compound further gave an EC50 in data set [2] greater than 5000 nM.
`COc1ccc2nc(C(=O)C(=O)N3CCN(C(=O)c4ccccc4)CC3C)ccc2c1` (stereo not given): the CC50 in data set [1] amounted to 184 µM. The same compound returned an EC50 in data set [2] of 0.2 nM.
As to `O=C(C(=O)N1CCN(C(=O)c2ccccc2)CC1)c1ccc2cccnc2c1`, in data set [1], the CC50 is greater than 300 µM. The compound further gave an EC50 in data set [2] of 2860 nM.
With `C[C@@H]1CN(C(=O)c2ccccc2)CCN1C(=O)C(=O)c1nc2ccccc2s1`, the CC50 in data set [1] is greater than 230 µM. Also, a half-maximal effect in data set [2] (EC50) was put at 34 nM.
In the case of `CC1CN(C(=O)c2ccccc2)CCN1C(=O)C(=O)c1ccc2cc(F)ccc2n1` (stereo not given), the CC50 in data set [1] came to 258 µM. Further, the EC50 in data set [2] was determined as 5.9 nM.
For `CC1CN(C(=O)c2ccccc2)CCN1C(=O)C(=O)c1cccc2cc[nH]c12` (stereo not given) the same measures were 212 µM and 1010 nM.
Regarding `COc1cc(C(=O)C(=O)N2CCN(C(=O)c3ccccc3)C[C@H]2C)nc2ccccc12`, in data set [1], the CC50 came out at 96 µM. For the same compound, in data set [2], the EC50 stood at 56 nM.
Turning to `COc1ccc2cc(C(=O)C(=O)N3CCN(C(=O)c4ccccc4)CC3C)[nH]c2c1` (stereo not given), in data set [1], the CC50 turned out to be 27 µM. The EC50 in data set [2] worked out at 4.8 nM.
Take `C[C@@H]1CN(C(=O)c2ccccc2)CCN1C(=O)C(=O)c1n[nH]c2ccccc12`: the CC50 in data set [1] was greater than 300 µM. The EC50 in data set [2] came to 655 nM.
Turning to `C[C@@H]1CN(C(=O)c2ccccc2)CCN1C(=O)C(=O)c1cnc2ccccc2n1`, the CC50 in data set [1] is greater than 300 µM. In addition, the EC50 in data set [2] amounted to 4.6 nM.
As to `C[C@@H]1CN(C(=O)c2ccccc2)CCN1C(=O)C(=O)c1c[nH]c2ccccc12`, in data set [1], the CC50 was determined as 200 µM. The response in data set [2] was half-maximal at 4 nM (EC50).
For `C[C@@H]1CN(C(=O)c2ccccc2)CCN1C(=O)C(=O)c1cc2ccccc2[nH]1`, it took 219 nM to reach a half-maximal effect in data set [2] (EC50).
